Laboratory results: patent US6984729B1, “Oligonucleotides specific for hepatitis B virus” (priority 1995, dated 2006)
Strand notation (5' to 3'): a small letter for the sugar, then the base; units joined by * are phosphorothioate-linked, units joined directly phosphodiester-linked; [ ] holds rarer units or linkages, { } end groups; capitals alone tell only the bases. d = 2'-deoxy (DNA)

Columns and labels:
[1] = tested on: In vitro transcribed HBV RNA (adw strain); experiment: RNase H cleavage assay with contiguous oligodeoxynucleotide phosphorothioates (FIG. 2); type: biochemical, hepatitis B virus; conditions: end-labelled HBV RNA (adw), regions found with random 20mer library
Protocol: To determine whether an oligonucleotide of the invention is capable of successfully hybridizing to its target, an RNase H assay was performed (Frank et al. (1993) Proc. Int. Conf. Nucleic Acid Med. Applns. 1:4.14(abstract)). This assay is useful when a region of at least four contiguous nucleotides of the oligonucleotide is DNA and the target is RNA. Hybridization of the DNA portion of the oligonucleotide to the RNA target is identified by cleavage at that site by RNase H.
In vitro transcribed HBV RNA (adw strain) was probed for sites accessible to oligonucleotide hybridization using a randomized library of 20 base oligodeoxynucleotides (approximately […]). Hybridization to the RNA was detected by RNase H cleavage of the end-labelled transcript. Three regions were identified by this assay. One region was in the 5′ untranslated region, between 113 and 70 bases upstream from the core initiator, and two regions were in the coding regionfor core, between 78 and 174 bases downstream from the core initiator. Contiguous oligodeoxynucleotide phosphorothioates were prepared against these regions and their ability to activate RNase H cleavage of the transcript measured.
The plasmid pHBVE+was generated by subcloning a StuI, BamHI fragment from the plasmid pAM6 (ATCC Ac. No. 45020, American Type Culture Collection, Rockville, Md.), representing HBV subtype adw nt 1701-nt 34 (GenBank accession # V00866) (Ono et al. (1983) Nucleic Acids Res. 11:1747–1757), into pBluescript II SK(+) (Stratagene, La Jolla, Calif.). […]
In 9 μl 1× RNase H buffer (40 mM Tris-HCl pH 7.4, 4 mM MgCl2, 1 mM DTT), 20–100 nM labelled RNA and 100 nM oligonucleotides were preincubated for 15 min at 37° C. […] The reactions were quenched and analyzed as described above.
Quantitation of the cleavage products was performed using software supplied with the Phosphorimager (Molecular Dynamics, Sunnyvale, Calif., or Bio-Rad Laboratories, Hercules, Calif.). “Counts” were determined by drawing a box around the band of interest and subtracting the background determined with a box drawn nearby. […]

[2] = tested on: HBV subtype ayw polymerase gene-luciferase fusion construct; experiment: Firefly luciferase reporter gene assay in stably transfected HepG2 cells (pol-luciferase fusion); type: cell-based; conditions: versus random 20mer PS negative control, FIG. 9
Protocol: Oligonucleotides targeted to the polymerase translation initiation region were also tested in mammalian cells using a firefly luciferase reporter gene assay. The 35 nucleotide region spanning the translation start site of the HBV ayw polymerase gene from nt 2294–2328 was cloned 5′ to, and in frame with, the entire open reading frame of the firefly luciferase gene in the plasmid pGLori, to produce the plasmid pGLpol (FIG. 10). Transcription of this pol-luciferase gene fusion was placed under the control of the cytomegalovirus early gene promoter. Expression of the pol-luciferase fusion in mammalian cells was quantified in a luminometer by addition of luciferin substrate and ATP cofactor to cell lysates. In all cellular antisense assays, a random sequence 20mer phosphorothioate oligonucleotide (random 20mer PS) was used as a negative control. […]
Stably transfected HepG2 cells were seeded into 96 well plates. […] Cells were washed twice with Dulbecco's phosphate-buffered saline (PBS) and lysed in 50 μl cell lysis buffer (Analytical Luminescence Laboratory, San Diego, Calif.). Luciferase activity was measured in 20 μl lysate using Analytical Luminescence Laboratory substrates in a MicroLumat LB 96 P luminometer (EG&G Berthold, Nashua, N.H.).

[3] = tested on: HBV genomes in the supernatants from HepG2.2.15 cells; experiment: Kinetic PCR HBV anti-viral assay on supernatants from HepG2.2.15 cells; type: cell-based, hepatitis B virus; conditions: copy number of HBV genomes in HepG2.2.15 supernatants, day 10
Protocol: In addition to Southern hybridizations, kinetic PCR was performed to assay the supernatants from the HepG2.2.15 cells. This procedure was carried out as described by Higuchi et al. (Biotechnol. (1993) 11:1026–1030). All PCRs were carried out with two sets of external controls which consisted of a dilution series of a known concentration of plasmid DNA that contained the HBV core gene amplified with the same primer set. These controls generated a standard curve that was used to calculate the copy number of HBV genomes in the supernatants from cells exposed to the various dilutions of compound.
The anti-viral assay was performed using HepG 2.2.15 cells (Sells et al. ([…]) Proc. Natl. Acad. Sci. (USA) 84:1005–1009) seeded at a density of 1×10^5 per well in 24 well plates. The cells were grown to confluence and allowed to stabilize for 2–3 days in RPMI media (supplemented with 10% fetal calf serum (FCS), 2 mM glutamine and penstrep (Life Technologies Ltd., Paisley, Scotland) prior to the addition of the oligonucleotide (defined as day 0). Six dilutions (10, 5, 1, 0.5, 0.1, and 0 μM) were set up in duplicate for each of the antisense oligonucleotides. In each assay run, the nucleoside analog, β-L-(2R,5S)-1,3 oxathiolanyl cytosine (3TC) (Glaxo, Greenford, U.K.) was included as positive control at 0.5, 0.1, 0.075, 0.05, and 0.01 and 0 μM in duplicate. Oligonucleotide was added to 1 ml of RPMI media (supplemented with 3% FCS, 2 mM glutamine and penstrep) at each of the indicated dilutions. At days 2, 4 and 7, the old media was removed and replaced with fresh media containing compound. At day 10, the supernatants were harvested, clarified by low speed centrifugation, prior to the addition of Triton X100 (Sigma, St. Louis, Mo.) and tri-n-butyl phosphate to give a final concentration of 1%. The samples were then heated to 70° C. for 20 minutes to disrupt the viral particles.
Following this treatment, the viral particles were subject to analysis by kinetic PCR. The primers RJ407 (SEQ ID NO:51) and RJ431 (SEQ ID NO:52) were used to detect a 205 bp fragment of the core gene. Kinetic PCR was performed essentially as described by Higuchi et al. (Biotechnol. (1993) 11:1026–1030). Briefly, the PCR reactions were set up under standard conditions except that ethidium bromide was included at a concentration of 4 μg/ml. […] A kinetic PCR analysis was performed by plotting the average intensity of fluorescence from each PCR sample after each annealing/extension cycle against the cycle number. The original template concentration can be calculated by utilizing a standard fluorescence curve generated by templates of known concentration.

**Q.** Which “ability to activate RNase H cleavage of the transcript” value (from here on “ability to activate RNase H cleavage”) [1] does the source give for “GCAGTATGGTGAGGTGAGCA (antisense dG*dC*dA*dG*dT*dA*dT*dG*dG*dT*dG*dA*dG*dG*dT*dG*dA*dG*dC*dA) [HBV41]” here?
**A.** single peaks of activity

**Q.** Which “antisense activity on luciferase expression” value [2] does the source give for “GGCATTTGGTGGTCTATAAG (antisense dG*dG*dC*dA*dT*dT*dT*dG*dG*dT*dG*dG*dT*dC*dT*dA*dT*dA*dA*dG) [HBVpol-1]” here?
**A.** had sequence-specific antisense activity

**Q.** How did the “ability to activate RNase H cleavage” value [1] turn out when “GAAAAAGTTGCATGGTGCTG (antisense dG*dA*dA*dA*dA*dA*dG*dT*dT*dG*dC*dA*dT*dG*dG*dT*dG*dC*dT*dG) [HBV44]” was run?
**A.** single peaks of activity

**Q.** And the IC50 [3]?
**A.** 700 nM

**Q.** For “GAGGCGGTGTCTAGGAGATC (antisense dG*dA*dG*dG*dC*dG*dG*dT*dG*dT*dC*dT*dA*dG*dG*dA*dG*dA*dT*dC) [HBV57]”, which “ability to activate RNase H cleavage” value [1] is on record?
**A.** single peaks of activity

**Q.** Which results are given for “GATAGGGGCATTTGGTGGTC (phosphorothioate, further chemistry not given here) [HBVpol-2]”?
**A.** antisense activity on luciferase expression [2]: had sequence-specific antisense activity; IC50 [3]: 3700 nM
